Laboratory results from ChEMBL document CHEMBL5506027, “Discovery of a Novel and Potent Cyclin-Dependent Kinase 8/19 (CDK8/19) Inhibitor for the Treatment of Cancer” (J Med Chem, 2024).

Key:
MV4-11 = test: Antiproliferative activity against human MV4-11 cells incubated for 5 days by CellTiter-Glo luminescent cell viability assay; format: functional, cell-based; settings: MV4-11, 120 h
[1] = molecular target: Cyclin-dependent kinase 8 (Homo sapiens, UniProt P49336); test: Inhibition of CDK8 (unknown origin) by HTRF assay
[2] = molecular target: T1, Cyclin-dependent kinase 19 (Homo sapiens, UniProt Q9BWU1); test: Inhibition of CDK19 (unknown origin) by HTRF assay
[3] = molecular target: Signal transducer and activator of transcription 1-alpha/beta (Homo sapiens) (UniProt P42224); test: Induction of STAT1 (unknown origin) phosphorylation at Ser727 residues by Western blotting analysis; settings: filed as activator, dose 0.0032-10 µM
CDK7/Cyclin H/MNAT1 = CDK7/Cyclin H/MNAT1 (Homo sapiens, UniProt P50613); test: Inhibition of CDK7/cyclinH/MAT1 (unknown origin) by ADP-Glo chemiluminescence assay; format: protein-complex assay
CDK2/Cyclin A2 = CDK2/Cyclin A2 (Homo sapiens, UniProt P24941); test: Inhibition of CDK2/cyclinA2 (unknown origin) by ADP-Glo chemiluminescence assay; format: protein-complex assay
[4] = Inhibition of CDK1/cyclinA2 (unknown origin) by ADP-Glo chemiluminescence assay; set-up: species or system Homo sapiens
[5] = molecular target: Cyclin-dependent kinase 2/cyclin E1 (Homo sapiens, UniProt P24941); test: Inhibition of CDK2/cyclinE1 (unknown origin) by ADP-Glo chemiluminescence assay; format: protein-complex assay
[6] = molecular target: T2, Cyclin-dependent kinase 5/CDK5 activator 1 (Homo sapiens, UniProt Q00535); test: Inhibition of CDK5/p25NCK (unknown origin) by ADP-Glo chemiluminescence assay; format: protein-complex assay
[7] = molecular target: T2, Cyclin-dependent kinase 5/CDK5 activator 1; test: Inhibition of CDK5/p35NCK (unknown origin) by ADP-Glo chemiluminescence assay; format: protein-complex assay
CDK8/Cyclin C = CDK8/Cyclin C (Homo sapiens, UniProt P49336); test: Inhibition of CDK8/CyclinC (unknown origin) by ADP-Glo chemiluminescence assay; format: protein-complex assay
[8] = molecular target: T1, Cyclin-dependent kinase 19; test: Inhibition of CDK19 (unknown origin) by ADP-Glo assay
[9] = molecular target: Dual specificity protein kinase CLK1 (Homo sapiens, UniProt P49759); test: Inhibition of CLK1 (unknown origin) by ADP-Glo assay
[10] = molecular target: Dual specificity protein kinase CLK2 (Homo sapiens, UniProt P49760); test: Inhibition of CLK2 (unknown origin) by ADP-Glo assay
[11] = molecular target: Dual specificity protein kinase CLK4 (Homo sapiens, UniProt Q9HAZ1); test: Inhibition of CLK4 (unknown origin) by ADP-Glo assay
[12] = molecular target: Serine/threonine-protein kinase pim-2 (Homo sapiens, UniProt Q9P1W9); test: Inhibition of PIM2 (unknown origin) by ADP-Glo assay
[13] = molecular target: Casein kinase II subunit alpha' (Homo sapiens, UniProt P19784); test: Inhibition of CSNK2A2 (unknown origin) by ADP-Glo assay
[14] = molecular target: Casein kinase I isoform alpha (Homo sapiens, UniProt P48729); test: Inhibition of CSNK1A1 (unknown origin) by ADP-Glo assay
[15] = molecular target: Homeodomain-interacting protein kinase 3 (Homo sapiens, UniProt Q9H422); test: Inhibition of HIPK3 (unknown origin) by ADP-Glo assay
[16] = molecular target: Dual specificity tyrosine-phosphorylation-regulated kinase 1A (Homo sapiens, UniProt Q13627); test: Inhibition of DYRK1A (unknown origin) by ADP-Glo assay
[17] = molecular target: Rho-associated protein kinase 1 (Homo sapiens, UniProt Q13464); test: Inhibition of ROCK1 (unknown origin) by ADP-Glo assay
[18] = molecular target: Serine/threonine-protein kinase haspin (Homo sapiens, UniProt Q8TF76); test: Inhibition of HASPIN (unknown origin) by ADP-Glo assay
[19] = molecular target: Serine/threonine-protein kinase TAO1 (Homo sapiens, UniProt Q7L7X3); test: Inhibition of TAOK1 (unknown origin) by ADP-Glo assay
[20] = molecular target: Mitogen-activated protein kinase 15 (Homo sapiens, UniProt Q8TD08); test: Inhibition of ERK8 (unknown origin) by ADP-Glo assay
Cytochrome P450 1A2 [21] = molecular target: T3, Cytochrome P450 1A2 (Homo sapiens, UniProt P05177); test: Inhibition of CYP1A2 (unknown origin) in absence of NADPH; format: ADME
T3 sequence (P05177 whole entry): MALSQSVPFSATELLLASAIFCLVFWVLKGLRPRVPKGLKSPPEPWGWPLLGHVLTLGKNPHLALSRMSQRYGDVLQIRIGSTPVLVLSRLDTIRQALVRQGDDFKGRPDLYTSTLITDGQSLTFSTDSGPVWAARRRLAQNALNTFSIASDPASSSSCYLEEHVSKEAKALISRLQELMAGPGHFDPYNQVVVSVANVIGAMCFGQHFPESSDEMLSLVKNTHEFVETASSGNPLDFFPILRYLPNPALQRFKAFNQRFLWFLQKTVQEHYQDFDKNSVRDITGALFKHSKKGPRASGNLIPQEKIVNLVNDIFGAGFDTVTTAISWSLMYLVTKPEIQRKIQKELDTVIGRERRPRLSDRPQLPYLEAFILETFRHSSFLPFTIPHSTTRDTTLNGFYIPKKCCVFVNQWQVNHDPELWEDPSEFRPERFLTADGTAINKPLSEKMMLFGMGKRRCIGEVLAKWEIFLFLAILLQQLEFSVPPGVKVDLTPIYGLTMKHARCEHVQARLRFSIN

Cytochrome P450 1A2 [22] = molecular target: T3, Cytochrome P450 1A2; test: Inhibition of CYP1A2 (unknown origin) preincubated for 30 mins in presence of NADPH; format: ADME
[23] = molecular target: Voltage-gated inwardly rectifying potassium channel KCNH2 (Homo sapiens, UniProt Q12809); test: Inhibition of human ERG; format: toxicity
[24] = Clearance in mouse at 1 mg/kg, iv measured upto 24 hrs by LC-MS/MS anlaysis; format: ADME, organism-based; settings: in vivo
[25] = Volume of distribution at steady state in mouse at 1 mg/kg, iv measured upto 24 hrs by LC-MS/MS anlaysis; format: ADME, organism-based; settings: in vivo, read-out: Vdss
[26] = Half-life in mouse at 1 mg/kg, iv measured upto 24 hrs by LC-MS/MS anlaysis; format: ADME, organism-based; settings: in vivo
[27] = Clearance in rat at 1 mg/kg, iv measured upto 24 hrs by LC-MS/MS anlaysis; format: ADME, organism-based; settings: in vivo
[28] = Volume of distribution at steady state in rat at 1 mg/kg, iv measured upto 24 hrs by LC-MS/MS anlaysis; format: ADME, organism-based; settings: in vivo, read-out: Vdss
[29] = Half-life in rat at 1 mg/kg, iv measured upto 24 hrs by LC-MS/MS anlaysis; format: ADME, organism-based; settings: in vivo
[30] = Clearance in dog at 1 mg/kg, iv measured upto 24 hrs by LC-MS/MS anlaysis; format: ADME, organism-based, Canis lupus familiaris; settings: in vivo
[31] = Volume of distribution at steady state in dog at 1 mg/kg, iv measured upto 24 hrs by LC-MS/MS anlaysis; format: ADME, organism-based, Canis lupus familiaris; settings: in vivo, read-out: Vdss
[32] = Half-life in dog at 1 mg/kg, iv measured upto 24 hrs by LC-MS/MS anlaysis; format: ADME, organism-based, Canis lupus familiaris; settings: in vivo
[33] = Cmax in dog at 5 mg/kg, po measured upto 24 hrs by LC-MS/MS analysis; format: ADME, organism-based, Canis lupus familiaris; settings: in vivo

T1 sequence (Q9BWU1 whole entry): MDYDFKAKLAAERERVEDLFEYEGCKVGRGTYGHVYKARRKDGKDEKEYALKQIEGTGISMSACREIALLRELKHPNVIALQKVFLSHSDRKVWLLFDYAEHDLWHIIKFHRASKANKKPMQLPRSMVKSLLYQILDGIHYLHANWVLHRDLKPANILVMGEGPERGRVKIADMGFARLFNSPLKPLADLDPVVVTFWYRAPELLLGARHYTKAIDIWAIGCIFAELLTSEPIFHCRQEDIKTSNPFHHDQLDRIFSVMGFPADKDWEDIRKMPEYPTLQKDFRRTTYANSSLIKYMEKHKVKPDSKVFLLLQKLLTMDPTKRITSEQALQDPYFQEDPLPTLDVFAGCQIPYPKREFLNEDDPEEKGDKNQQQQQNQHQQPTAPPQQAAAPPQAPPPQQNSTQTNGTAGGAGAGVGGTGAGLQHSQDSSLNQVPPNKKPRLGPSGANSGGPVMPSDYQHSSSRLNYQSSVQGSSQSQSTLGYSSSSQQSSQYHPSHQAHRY
T2 sequence (Q00535 whole entry): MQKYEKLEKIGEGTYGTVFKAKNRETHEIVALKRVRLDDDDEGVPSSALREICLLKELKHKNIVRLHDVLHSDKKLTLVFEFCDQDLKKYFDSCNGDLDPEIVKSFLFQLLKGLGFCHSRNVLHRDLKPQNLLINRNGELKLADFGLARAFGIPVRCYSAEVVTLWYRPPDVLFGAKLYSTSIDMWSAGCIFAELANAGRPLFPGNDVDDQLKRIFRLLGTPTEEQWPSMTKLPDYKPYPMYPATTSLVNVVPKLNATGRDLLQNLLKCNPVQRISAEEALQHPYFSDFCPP
T2 sequence (Q15078 whole entry, further chain): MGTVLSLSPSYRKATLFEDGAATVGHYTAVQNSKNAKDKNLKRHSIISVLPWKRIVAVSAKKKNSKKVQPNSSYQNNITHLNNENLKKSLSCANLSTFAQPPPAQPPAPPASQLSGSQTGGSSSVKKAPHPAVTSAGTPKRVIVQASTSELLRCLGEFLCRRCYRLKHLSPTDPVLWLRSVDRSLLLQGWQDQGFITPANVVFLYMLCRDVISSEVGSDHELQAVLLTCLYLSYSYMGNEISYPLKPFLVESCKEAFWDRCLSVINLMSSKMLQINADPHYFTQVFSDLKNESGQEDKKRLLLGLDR
CDK7/Cyclin H/MNAT1, sequence (P51946 whole entry): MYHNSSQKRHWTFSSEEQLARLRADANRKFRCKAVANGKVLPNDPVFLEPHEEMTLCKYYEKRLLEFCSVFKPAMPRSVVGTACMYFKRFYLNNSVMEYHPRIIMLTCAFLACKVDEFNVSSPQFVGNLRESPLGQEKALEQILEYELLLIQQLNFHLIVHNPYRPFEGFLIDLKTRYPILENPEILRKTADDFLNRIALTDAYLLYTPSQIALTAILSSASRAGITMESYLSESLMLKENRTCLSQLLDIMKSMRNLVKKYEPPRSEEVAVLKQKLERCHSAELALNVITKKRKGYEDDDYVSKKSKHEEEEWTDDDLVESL
CDK7/Cyclin H/MNAT1, sequence (P50613 whole entry): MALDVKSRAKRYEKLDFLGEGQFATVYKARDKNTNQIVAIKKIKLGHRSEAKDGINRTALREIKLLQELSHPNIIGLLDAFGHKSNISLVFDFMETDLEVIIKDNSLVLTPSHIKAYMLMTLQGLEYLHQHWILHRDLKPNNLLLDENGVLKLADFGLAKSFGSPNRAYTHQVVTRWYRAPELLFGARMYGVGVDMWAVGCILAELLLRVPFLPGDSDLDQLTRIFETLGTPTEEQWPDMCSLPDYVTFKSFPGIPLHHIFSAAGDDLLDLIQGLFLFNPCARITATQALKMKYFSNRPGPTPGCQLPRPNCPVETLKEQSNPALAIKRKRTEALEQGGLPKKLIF
CDK7/Cyclin H/MNAT1, sequence (P51948 whole entry, further chain): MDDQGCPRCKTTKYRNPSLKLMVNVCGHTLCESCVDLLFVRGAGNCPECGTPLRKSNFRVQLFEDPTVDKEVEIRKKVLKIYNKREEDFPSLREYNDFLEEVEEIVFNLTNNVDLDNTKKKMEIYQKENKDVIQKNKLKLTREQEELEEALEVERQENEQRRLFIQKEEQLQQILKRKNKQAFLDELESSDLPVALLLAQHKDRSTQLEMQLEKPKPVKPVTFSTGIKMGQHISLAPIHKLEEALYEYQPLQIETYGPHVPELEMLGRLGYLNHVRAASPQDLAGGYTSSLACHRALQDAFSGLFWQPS
Casein kinase I isoform alpha, sequence (P48729 whole entry, canonical isoform): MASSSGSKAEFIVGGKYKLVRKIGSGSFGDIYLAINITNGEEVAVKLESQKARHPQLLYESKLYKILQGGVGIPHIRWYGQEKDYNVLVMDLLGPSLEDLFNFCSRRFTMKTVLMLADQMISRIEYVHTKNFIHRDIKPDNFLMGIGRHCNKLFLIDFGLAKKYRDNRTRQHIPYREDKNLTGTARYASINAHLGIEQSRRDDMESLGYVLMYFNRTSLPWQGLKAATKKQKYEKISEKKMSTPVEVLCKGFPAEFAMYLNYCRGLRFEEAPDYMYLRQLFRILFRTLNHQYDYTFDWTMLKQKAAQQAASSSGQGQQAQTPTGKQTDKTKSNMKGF
Dual specificity protein kinase CLK2, sequence (P49760 whole entry): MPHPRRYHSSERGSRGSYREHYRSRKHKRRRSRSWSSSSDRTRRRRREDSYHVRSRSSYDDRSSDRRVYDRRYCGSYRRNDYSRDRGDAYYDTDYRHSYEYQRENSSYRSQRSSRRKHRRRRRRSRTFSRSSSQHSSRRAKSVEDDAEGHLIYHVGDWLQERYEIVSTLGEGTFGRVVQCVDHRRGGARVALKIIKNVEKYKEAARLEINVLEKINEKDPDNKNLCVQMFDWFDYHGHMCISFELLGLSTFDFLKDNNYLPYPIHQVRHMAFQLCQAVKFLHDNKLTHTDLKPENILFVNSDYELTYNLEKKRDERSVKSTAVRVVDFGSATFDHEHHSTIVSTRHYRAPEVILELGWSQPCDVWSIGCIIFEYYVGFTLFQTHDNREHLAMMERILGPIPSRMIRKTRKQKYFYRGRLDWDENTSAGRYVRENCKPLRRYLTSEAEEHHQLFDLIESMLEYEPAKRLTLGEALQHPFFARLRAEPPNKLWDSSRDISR
Mitogen-activated protein kinase 15, sequence (Q8TD08 whole entry): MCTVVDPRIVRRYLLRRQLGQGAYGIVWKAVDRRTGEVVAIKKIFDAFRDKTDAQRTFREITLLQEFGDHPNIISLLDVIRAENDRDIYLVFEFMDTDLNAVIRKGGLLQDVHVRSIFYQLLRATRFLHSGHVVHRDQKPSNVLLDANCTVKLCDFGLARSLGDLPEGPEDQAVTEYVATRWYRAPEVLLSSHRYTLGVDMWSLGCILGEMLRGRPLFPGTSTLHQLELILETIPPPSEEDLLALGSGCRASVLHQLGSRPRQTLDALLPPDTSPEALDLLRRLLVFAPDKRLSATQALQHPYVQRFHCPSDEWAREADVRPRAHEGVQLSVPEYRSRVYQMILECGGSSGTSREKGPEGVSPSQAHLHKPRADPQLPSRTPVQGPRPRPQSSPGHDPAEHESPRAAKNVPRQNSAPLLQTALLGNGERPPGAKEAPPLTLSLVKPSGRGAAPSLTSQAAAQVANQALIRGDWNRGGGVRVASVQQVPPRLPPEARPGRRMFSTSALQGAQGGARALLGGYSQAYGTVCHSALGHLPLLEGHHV
Casein kinase II subunit alpha', sequence (P19784 whole entry, canonical isoform): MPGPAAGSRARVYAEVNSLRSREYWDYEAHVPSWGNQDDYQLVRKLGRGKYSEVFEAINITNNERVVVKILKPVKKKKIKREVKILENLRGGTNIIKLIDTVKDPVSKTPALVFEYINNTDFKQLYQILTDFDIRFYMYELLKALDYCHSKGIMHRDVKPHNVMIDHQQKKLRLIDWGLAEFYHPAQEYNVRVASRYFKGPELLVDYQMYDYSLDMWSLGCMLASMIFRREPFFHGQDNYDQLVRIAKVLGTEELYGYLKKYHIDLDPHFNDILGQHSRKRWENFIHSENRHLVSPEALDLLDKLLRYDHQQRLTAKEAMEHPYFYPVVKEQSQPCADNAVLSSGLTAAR
Serine/threonine-protein kinase TAO1, sequence (Q7L7X3 whole entry): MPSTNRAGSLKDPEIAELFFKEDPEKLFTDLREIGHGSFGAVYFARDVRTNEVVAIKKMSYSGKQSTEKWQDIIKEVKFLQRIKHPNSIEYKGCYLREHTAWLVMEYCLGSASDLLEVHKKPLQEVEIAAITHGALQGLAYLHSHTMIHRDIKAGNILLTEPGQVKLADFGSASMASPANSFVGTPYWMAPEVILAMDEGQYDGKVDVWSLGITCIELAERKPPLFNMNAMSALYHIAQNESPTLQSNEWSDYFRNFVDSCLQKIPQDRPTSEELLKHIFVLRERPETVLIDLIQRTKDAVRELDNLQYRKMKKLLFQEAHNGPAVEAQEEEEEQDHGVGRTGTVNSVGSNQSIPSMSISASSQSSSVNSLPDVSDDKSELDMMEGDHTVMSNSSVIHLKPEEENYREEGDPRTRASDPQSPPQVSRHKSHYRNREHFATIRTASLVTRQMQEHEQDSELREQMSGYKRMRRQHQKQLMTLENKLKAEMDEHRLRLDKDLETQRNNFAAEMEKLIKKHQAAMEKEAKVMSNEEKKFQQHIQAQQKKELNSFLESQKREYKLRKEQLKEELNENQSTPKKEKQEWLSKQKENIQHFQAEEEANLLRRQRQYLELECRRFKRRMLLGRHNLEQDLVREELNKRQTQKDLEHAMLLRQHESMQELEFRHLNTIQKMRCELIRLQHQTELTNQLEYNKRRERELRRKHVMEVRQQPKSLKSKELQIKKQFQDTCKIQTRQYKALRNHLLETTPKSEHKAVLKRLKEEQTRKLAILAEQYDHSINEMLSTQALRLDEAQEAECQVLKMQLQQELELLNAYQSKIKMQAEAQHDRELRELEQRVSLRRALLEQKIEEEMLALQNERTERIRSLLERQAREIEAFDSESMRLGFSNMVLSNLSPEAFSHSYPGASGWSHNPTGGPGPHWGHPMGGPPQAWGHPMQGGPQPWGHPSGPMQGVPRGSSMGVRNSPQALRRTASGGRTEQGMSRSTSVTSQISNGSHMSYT

Row | SMILES | IC50 (MV4-11) | IC50 [1] | IC50 [2] | IC50 (CDK7/Cyclin H/MNAT1) | IC50 (CDK2/Cyclin A2) | IC50 [4] | IC50 [5] | IC50 [6] | IC50 [7] | IC50 (CDK8/Cyclin C) | IC50 [8] | IC50 [9] | IC50 [10] | IC50 [11] | IC50 [12] | IC50 [13] | IC50 [14] | IC50 [15] | IC50 [16] | IC50 [17] | other results
1 | FC(F)c1c(Br)c(Br)cc2c1nc(N1CCNCC1)n2C1CCOCC1 | 5.7 nM | 2.08 nM | 2.49 nM | 197 nM | 42.6 nM | 236 nM | 31.4 nM | 87.4 nM | 194 nM | 7.5 nM | 25.1 nM | 8.2 nM | 14.3 nM | 2.9 nM | 124 nM | 64.9 nM | 132 nM | 503 nM | 158 nM | 353 nM | Activity [3]: Dose-Dependent Effect; IC50 [18]: 13.6 nM; IC50 [19]: 6680 nM; IC50 [20]: 59.7 nM; IC50 (Cytochrome P450 1A2 [21]): 8580 nM; IC50 (Cytochrome P450 1A2 [22]): 4580 nM; IC50 [23]: 5800 nM; clearance [24]: 14 mL/min/kg; Vd [25]: 5.96 L/kg; half-life [26]: 5.04 h; clearance [27]: 70 mL/min/kg; Vd [28]: 13.3 L/kg; half-life [29]: 2.53 h; clearance [30]: 12 mL/min/kg; Vd [31]: 4.31 L/kg; half-life [32]: 4.75 h; Cmax [33]: 475 ng/mL
2 | Cc1c(Br)c(Br)c2c3c1nc(N1CCNCC1)n3CCC2 [SEL-120 FREE BASE] | 43.8 nM | 14.5 nM | 19.1 nM | 51 nM | 4.7 nM | 20.5 nM | 0.968 nM | 1.66 nM | 1.34 nM | 17.5 nM | 25.1 nM | 5.3 nM | 21 nM | 2.7 nM | 298 nM | 279 nM | 1390 nM | 132 nM | 332 nM | 717 nM | IC50 [18]: 46 nM; IC50 [19]: > 10000 nM; IC50 [20]: 1340 nM; IC50 (Cytochrome P450 1A2 [21]): 160 nM; IC50 (Cytochrome P450 1A2 [22]): 40 nM; IC50 [23]: 700 nM; clearance [24]: 81 mL/min/kg; Vd [25]: 19.2 L/kg; half-life [26]: 3.01 h; clearance [27]: 246 mL/min/kg; Vd [28]: 32.3 L/kg; half-life [29]: 1.77 h; clearance [30]: 30 mL/min/kg; Vd [31]: 6.23 L/kg; half-life [32]: 2.7 h
